# Test results published in PubChem BioAssay AID449762 (Southern Research Specialized Biocontainment Screening …, 2010).
# pIC50: −log10 of the molar value. Results filed as inconclusive are left out.
# System: M. tuberculosis H37Rv growth inhibition, 7H9 media
# Assay: M. tuberculosis growth inhibition, HTS (AID 449762);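 also: bacterial growth assessed after seven days of incubation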
# Settings: for IC90: measured here: IC90 growth inhibition
Structure (SMILES),pIC50,IC90 [µM]
O=C1CC(/C=C/c2ccc(Cl)cc2)=Nc2ccccc2N1,4.92,14.1
Oc1c(C(c2ccccc2Cl)N2CCCC2)ccc2cccnc12 (stereo unspecified),4.85,31.1
C[CH2][Hg][S]c1ccccc1C(=O)O,6.47,0.81
N#CC1=C(c2ccccc2)/C(=C/c2ccccc2)OC1=O,4.99,20.1
Cc1cc(/C=C(/C#N)c2cccc(F)c2)c(C)n1-c1cccnc1,–,> 100
CC1(c2ccc(OC(F)F)cc2)NC(=O)N(CC(=O)c2ccc3c(c2)OCO3)C1=O (stereo unspecified),4.63,32.2
Nc1c(C(=O)OCC2CCCO2)c2nc3ccccc3nc2n1C1CCCC1 (stereo unspecified),4.26,> 100
O=C(OCc1ccccc1)/C(=C(\O)c1ccccc1Br)c1ccc(-c2ccccc2)cn1,4.62,45.8
C=CC[N@@+]12CC[C@]34c5ccccc5N5/C=C6\C7N(/C=C(\C53)[C@@H](C[C@@H]41)/C(=C/CO)C2)c1ccccc1[C@@]71CC[N@@+]2(CC=C)C/C(=C\CO)[C@@H]6C[C@@H]12 (stereo partly specified),4.25,> 100
CC1=C(C)C(=O)C(CCCCC#CCCCC#CCO)=C(C)C1=O,4.96,18.7
Cc1ccc(/C=N/NC(=S)NC(C)C)o1,4.37,47.9
Cc1ccc2c(c1)c(/C=C/c1cc[n+](C)cc1)c(C)n2C,5.29,6.8
CCSc1ncc(/C=N/Nc2ccccc2)n1C,4.05,> 100
COc1ccc(Nc2nc(N3CCCCC3)nc3ccccc23)c(OC)c1,4.72,26.5
COC(OC)c1ccnc(-c2ccc(OC(=O)c3cccs3)cc2)n1,4.20,> 100
COC(=O)C1C2c3ccccc3OC1(C)N=c1s/c(=C/c3cnn(C)c3C)c(=O)n12 (stereo unspecified),6.01,13.1
COc1cc(/C=C2\C(=O)N(c3ccc(S(N)(=O)=O)cc3)N=C2C)ccc1OC(=O)c1ccco1,4.79,22.6
COc1cccc2sc3ccc(C#CC4(N)CCCCC4)cc3c(=O)c12,4.21,82.2
CCOc1cc(/C=C\[N+](=O)[O-])ccc1OCC(=O)Nc1ccccc1C,5.16,33.8
CCOc1ccc(C2c3[nH]c4ccccc4c3C[C@H]3C(=O)N(C4CCN(Cc5ccccc5)CC4)CC(=O)N23)cc1OC (stereo partly specified),4.67,29.7
Cc1ccc(N2CCN(C(=O)c3cn(CC4CCCCC4)nn3)C(C)C2)cc1 (stereo unspecified),5.39,12.4
CC(=O)c1ccc(-n2cc(-c3ccc(C(C)(C)C)cc3)[n+]3c2SCCC3)cc1,5.36,29.5

Structure (SMILES),pIC50,IC90 [µM]
O=C(N/N=C(\c1ccccc1)c1ccccn1)c1ccccc1Cl,5.44,22.1
Cc1sc2ncnc(N3CCC(C(=O)N(CC(C)C)c4nc5ccccc5s4)CC3)c2c1C,4.07,> 100
COc1cc2cc(C(c3nnnn3C(C)(C)C)N3CCc4ccccc43)c(=O)[nH]c2cc1OC (stereo unspecified),4.01,> 100
S=c1nc2ccccc2c2nc(-c3ccccc3)[nH]n12,4.98,14.6
Cc1ccc(S(=O)(=O)Nc2cccc3ncccc23)s1,> 6.70,3.93
C/C(=N\Nc1nc2c(s1)CCCC2)c1ccccc1,4.73,34.4
COc1ccc(C2CC(=O)c3cnc(Nc4cc(C)cc(C)c4)nc3C2)cc1 (stereo unspecified),4.91,22.4
CCOc1ccc(N/C(C)=C/C(=O)c2ccc3c(c2)OCCO3)cc1,4.94,47.2
Cc1ccc(CN2CCN(/N=C/c3ccc(Cl)c([N+](=O)[O-])c3)CC2)cc1,4.64,36.5
Cc1ccc(-n2nc3c(N4CCC(C(=O)NCc5ccccc5C)CC4)nnc(C)c3c2C)cc1,4.33,69
COc1ccccc1NC(=O)C(C)OC(=O)/C=C/c1ccc2ccccc2n1 (stereo unspecified),5.42,11.4
CC(C)[C@H](CO)N(Cc1cccc(F)c1)c1nc(Nc2cccc(Cl)c2)c2ncn(C(C)C)c2n1,4.64,35.4
CC(c1ccccc1)N1CCN(C(=O)CCl)CC1 (stereo unspecified),5.90,3.24
C(=N\Nc1ccc2ccccc2n1)/c1ccc2c(c1)OCCO2,5.56,4.03
O=C(OCC(=O)c1cccs1)C1=COCCO1,4.67,> 100
Cc1cc(/C=N\NC(=O)c2cccs2)c(C)n1-c1ccc2ncccc2c1,4.92,31.7
O=[N+]([O-])c1ccc(COc2ccc(-c3[nH]ncc3-c3ccc(Cl)cc3)c(O)c2)cc1,4.17,> 100
COc1ccc(OCC(=O)Nc2c(C(=O)N(CCN(C)C)Cc3ccco3)oc3ccccc23)cc1,4.60,27.5
O=C(Nc1ccc(Cl)cc1)N(C1=NCCC1)c1ccc(OC(F)F)cc1,4.46,70.9
Cc1[nH]c2ccc(OC(F)(F)F)cc2c1CCNCc1ccc(Cl)cc1,4.96,19
COc1ccc2c(c1)[C@@H]1[C@H](CO2)[C@H](c2ccccc2)[C@]2(C)C(=O)Nc3ccc(C)cc3C(=O)N12,4.31,> 100
Cc1ccc2[nH]c(C)c(CCNC(=O)c3cc4cc([N+](=O)[O-])ccc4oc3=O)c2c1,5.07,16.5

Structure (SMILES),pIC50,IC90 [µM]
Cc1c(NC(=O)c2ccc([N+](=O)[O-])o2)cccc1-c1nc2ncccc2o1,5.08,> 25
Cc1ccc(Cn2nnnc2CN2CCC(c3nc4ccc(Cl)cc4[nH]3)CC2)cc1,4.58,35.9
COc1cc(C(=O)/C=C/c2cccnc2)c([N+](=O)[O-])cc1OC,5.26,8.56
O[C@@H](c1cc(C(F)(F)F)nc2c(C(F)(F)F)cccc12)[C@H]1CCCCN1,4.74,24.5
N#C/C(=C\c1ccc(-c2ccc(Br)cc2)o1)C(=O)NCCc1c[nH]c2ccccc12,4.02,> 100
OC(CN1CCCCC1)Cn1c2ccc(Cl)cc2c2cc(Cl)ccc21 (stereo unspecified),5.05,11.6
COC(=O)C1=C(C)N(Cc2ccccc2)C(=NCc2cccc(Cl)c2)N[C@H]1c1ccccc1,4.78,21
Cc1nc(N2CCC(C)CC2)c2oc3ccccc3c2n1,4.62,45.4
CN1C(C(=O)NCc2ccc(OC(F)(F)F)cc2)CC2Cn3c(nc4cc(Cl)c(Cl)cc43)C21 (stereo unspecified),4.40,55.6
Cc1ccnc(Sc2ccc([N+](=O)[O-])cc2[N+](=O)[O-])n1,5.11,15.1
CCc1cc(OCCCCNCc2ccccc2)ccc1Cl,4.58,30.4
N#CC(C#N)=C(N)CSc1cccc[n+]1[O-],5.20,11
CC(C)(C)c1csc(NC(=O)c2c(F)c(F)c(F)c(F)c2F)n1,4.75,25.2
CC(C)CNc1nnnc2c1sc1nc(N3CCOCC3)c3c(c12)CC(C)(C)SC3,4.13,> 100
CCOc1cc2c(cc1OCC)-n1cccc1C(c1ccc(C(C)C)cc1)NC2 (stereo unspecified),4.69,29.6
Cc1ccc2c(c1)Oc1ccc(NC(=O)CCl)cc1C(=O)N2,5.10,> 100
CCN(CC)c1ccc2nc3ccccc3[n+](CC)c2c1,5.57,5.66
COc1ccc(NC(C)C(=O)Nc2ccc(C(C)(C)C)cc2)cc1Cl (stereo unspecified),4.06,> 100
CC(C)CCC[C@@H](C)[C@H]1CC[C@H]2[C@@H]3C(=O)C=C4C[C@@H](O)CC[C@]4(C)[C@H]3CC[C@]12C,4.36,47.8
O=C(CSc1nn(-c2ccc(F)cc2)c(=S)s1)NCC1CCCO1 (stereo unspecified),5.21,> 100
O=C(NCc1nnnn1-c1ccc(F)cc1)c1ccc([N+](=O)[O-])o1,4.78,74.1
Cc1ccc(C)c(C2C(=O)c3ccccc3C2=O)c1,5.40,16.3

Structure (SMILES),pIC50,IC90 [µM]
O=C1CN(CC(=O)N2CCCCC2)c2ccccc2O1,4.63,27.4
CCOc1ccc(/C=N/OCC(=O)Nc2cc(C)on2)cc1,4.53,> 100
CCCc1ccc(C2=Nn3c(nnc3C(C)C)SC2)cc1,4.73,29.7
CCC1C(c2ccccc2)N(C)C(c2ccccc2)CC1(O)c1ccccc1 (stereo unspecified),4.63,25.5
Oc1ccc(/C=N/n2c3ccccc3c3ccccc32)cc1,–,> 100
CSc1nsc(SCC(=O)Nc2ccc(F)cc2F)n1,4.70,63.4
Cc1ccc2[nH]c(C(=O)NN=C3CCCCC3)c(-c3ccccc3)c2c1,4.54,56.6
C=CC[n+]1ccn(-c2nc3ccccc3nc2[N-]S(=O)(=O)c2cccs2)c1,4.60,28.1
O=c1c(C=Nc2ccc(Oc3ccccc3)cc2)c[nH]n1-c1cccc(Cl)n1,4.97,> 100
Cc1cccc(-c2ncc(CN3CCC(CO)(CCCc4ccccc4)CC3)cn2)c1,4.36,73.5
O=[N+]([O-])c1cc(-c2nc(-c3ccncc3)no2)cc([N+](=O)[O-])c1,5.44,11.4
Oc1cc(NCc2cccnc2)ccc1-c1nc2ccccc2o1,4.90,44.4
CCOC(=O)CSc1nnc(-c2c[nH]c3ccccc23)o1,6.23,> 100
CCc1ccc2oc(-c3cc(N=Cc4cccc(OC)c4O)ccc3O)nc2c1,4.45,69.3
COc1ccc(-c2oc(NC(=O)CCl)c(C#N)c2-c2ccc(OC)cc2)cc1,4.90,54.7
O=C(COC(=O)C1=COCCO1)Nc1cccc(Oc2ccccc2)c1,5.29,55.4
COc1ccc(-c2csc3ncnc(N4CCN(c5ccccc5OC)CC4)c23)cc1,4.64,26.2
Cc1[nH]n(-c2ccccc2)c(=S)c1C=NCCCN=Cc1c(C)[nH]n(-c2ccccc2)c1=S,–,> 100
c1ccc(CSc2ccc(-c3ccccn3)nn2)cc1,4.63,26.9
Cc1cc(-c2n[nH]c(=S)n2/N=C/C(Br)=C/c2ccccc2)n[nH]1,5.68,5.63
C=CCOc1ccc(C2=NOC(C(=O)Nc3ccc4c(c3)OCCO4)C2)cc1 (stereo unspecified),4.89,23.1
